# Tested on: sebaceous-gland-structure A
# Experiment: Observation of inside of sebaceous-gland-structure, lipid droplets of sebum in outermost layer / degree of progress of sebum production (Example 2)
# Assay type: cell-based
# Details: test sample B, linoleic acid 1×10^−4 M, 24 hours (Experiment number 8); FIGS. 8 and 10
# Method: Linoleic acid and linoleic acid receptor antagonist (manufactured by Abeam plc, trade name: GSK-3787) as test substances were added to the mixed medium obtained in Preparation Example 1 so that the concentration of linoleic acid was 1×10^−4 M and so that the concentration of the test substance was 1 μM, to obtain a test sample D.
# One milliliter of the test sample A was added to each well of a 24-well plate. Next, the sebaceous-gland-structure A obtained in Preparation Example 6 was cultured in a suspended state in the test sample A in each well of the 24-well plate in the presence of 5% by volume carbon dioxide at 37° C. for 24 hours, to contact the sebaceous-gland-structure A with the test sample A (Experiment number 7). […]
# Furthermore, the state of each cell of 40 cells in the outermost layer shown in each figure was evaluated by using the results shown in FIGS. 7 to 9 on the basis of the evaluation criterion described below. […]
# Next, the degree of progress of sebum production in the sebaceous gland cell contained in the sebaceous-gland-structure A was evaluated by calculating the mean value of the points in the 40 cells in the outermost layer in FIGS. 7 to 9. […]
structure (smiles),measurement,value
"CCCCC/C=C\C/C=C\CCCCCCCC(=O)O [linoleic acid, Linoleic acid]",lipid droplets of sebum in the outermost layer of the sebaceous-gland-structure A,lipid droplets of sebum were found
